We go through one compound from patent US20250289786A1, “CHLORINATED MONOCARBONYL CURCUMIN COMPOUNDS, PREPARATION METHOD, AND APPLICATION” (Southwest Medical University, priority 2024, published 2025).

One data set has as its system PC12 cells. The data set is described as follows: Inhibition of corticosterone (CORT)-induced PC12 cell damage. The settings on record: 24 h. The data set is classed as cell-based, rat.
The next data set has as its system BV2 cells. Kind of data set: ROS detection (DCFH-DA) in LPS-induced BV2 cells. The data set is classed as cell-based. The note with it: 10, 5 and 1 μM with LPS, in words. An excerpt: When the body is in a long-term stress and stress state, a large number of oxidizing substances and inflammatory factors accumulate in the body, causing depression and inducing depression-like symptoms. LPS is a pro-inflammatory substance, which can induce the increase of inflammatory factors, the accumulation of reactive oxygen species ROS and the release of NO in BV2 cells. The anti-inflammatory and antioxidant effects of drugs can be evaluated by establishing an LPS stress model.
ROS detection: The fluorescent dye probe DCFH-DA can freely pass through the BV2 cell membrane, and the dye entering the cell is enzymatically hydrolyzed to DCFH, at this time, it can no longer pass through the cell membrane. The intracellular ROS can oxidize DCFH to DCF with fluorescence, which can reflect the ROS content by detecting the fluorescence intensity of DCF. The specific operation is as follows: when BV2 cells grew to the logarithmic growth phase, they were inoculated in a 6-well plate at 1×10^6 cells/well and cultured for 24 h. […] After the cells were co-cultured with compound CAK06 for 12 h, the cells were stained according to the instructions of the ROS detection kit, and photographed and analyzed by an inverted fluorescence microscope.

Data set [1] deals with CUMS depression model mice. The data set is described as follows: Open field test in CUMS depression model mice. The data set is classed as in vivo, C57BL/6J mice. The note with it: 28 days, model 327.22±161.39 cm. An excerpt:
After one week of adaptive feeding, the newly purchased mice were divided into a blank group and CUMS model group. The mice in the blank group were not subjected to behavioral intervention and were fed normally. Mice in the model group were given 1-2 unpredictable behavioral stimuli every day. […] When the same stimulation is continuous, the stimulation method is changed to ensure that the same stimulation is not continuous, and the model construction period is 42 days.

Data set [2] has as its system liver, heart, spleen, lung, and kidney tissues. Kind of data set: HE staining safety evaluation of mouse tissues. The data set is classed as in vivo. The settings on record: kidney of mice, in words.

Take `COc1cc(/C=C2\CNC/C(=C\c3cc(Cl)c(O)c(OC)c3)C2=O)cc(Cl)c1O` [CAK06, 3,5-bis ((E)-3-chloro-4-hydroxy-5-methoxybenzylidene) piperidin-4-one]: the “relative cell proliferation rate” value in the data set with PC12 cells (60 μM drug with 514.6 μM CORT) was 66.95±0.97%. Further, in the data set on PC12 cells (3.75-60 μM drug with 514.6 μM CORT, in words), the “effect on viability of CORT-damaged PC12 cells” value was “time-dependent and concentration-dependent cell protection”. Moreover, the ROS fluorescence intensity result in the data set on BV2 cells is “decreased in a concentration-dependent manner”. Also, the “overall activity distance in the open field test” value in data set [1] (10 mg/kg oral once a day) stood at 868.90±280.97 cm; in data set [1] (20 mg/kg oral once a day), 1336.66±264.87 cm. The “HE staining pathology of tissues” value in data set [2] is listed as “basically normal”.
